Data: patent publication US4216226A (priority 1977, dated 1980)
Where a name gives a salt, the structure may show the parent alone. Read-outs that look alike come from different tables or passages of the source.

Columns and labels:
[1] = test system: Newcastle disease virus (NDV) Miyadera strain; format: cell-based; conditions: HeLa S3 cell; 37° C., 5-7 days; at MDC, 1/2 or 1/4 MDC; vs control
Influenza virus = format: cell-based
in vitro [2] = conditions: human, hela s3 cells
in vitro [3] = conditions: rainbow trout, rtg-2 cells
viruses = conditions: cited from earlier work
[4] = test system: Infectious pancrease necrosis virus (IPNV); format: cell-based
[5] = test system: Vaccinia virus Lister strain; format: cell-based; conditions: HeLa S3 cell; 37° C., 5-7 days; at MDC, 1/2 or 1/4 MDC; vs control
[6] = test system: IPNV (infectious pancreas necrosis virus); experiment: Preventing IPN virus in fish; format: in vivo, rainbow trout; conditions: 16 ppm water bath 96 hours, 18° C.; for Cumulative number of dying fish: 20 fish
Description: 40 Young (4-6 cm in body length) rainbow trout were sensitised by immersion for 3 hours under aeration in 7.5 liters of a water bath containing IPNV (infectious pancreas necrosis virus) which was prepared by diluting to a 1000-fold volume a cell stock of IPNV (virus titer: 10^6.301 TCID50 /ml) cultured in RTG-2 cells. Immediately after this sensitisation, the fish were divided into two groups each comprising 20 fish and each group was placed in two glass vessels containing 50 liters of water, respectively. The first group of fish was the treated group, while the second group of fish was the control group (untreated).
After the first group of fish was placed in the water-containing vessel, L-hydroxyureidomethyl glycine was dissolved in the water to a concentration of 16 ppm. in this vessel, whereupon the fish were treated during 96 hours with the water bath containing the active compound. Thereafter, the active solution of the bath was replaced by fresh water containing no active compound, and the fish were observed daily to count the number of the young fish which fell dead. The active compound was not added to the water in the second vessel containing the second group of fish (control group), although replacement of water was made in the second vessel. In this way, the effect of L-hydroxyureidomethyl glycine in preventing IPNV infection was estimated. All of the tests were conducted in the water at 18° C.

[7] = test system: Influenza virus A0 /PR-8 strain; format: in vivo, mice of the ICR strain; conditions: 100 mg/kg, intraperitoneal, twice a day for 3 days; mouse lung at 72 hours
[8] = test system: vaccinia virus Lister strain; format: in vivo, mice of the ICR strain; conditions: subcutaneous, 4 times first day, twice a day days 2-5, 10th day
mice = conditions: mouse, in vivo, ip

Compound | Difference of -log TCID50 /ml, NDV [1] | Difference of -log TCID50 /ml, Influenza virus (calculated from chick hemagglutination titer) (Influenza virus) | MCC (in vitro [2]) | MCC (in vitro [3]) | antiviral activity (reported) (viruses) | Difference of -log TCID50 /ml, IPNV [4] | Difference of -log TCID50 /ml, Vaccinia virus [5] | Survival rate ([6]; 67 days, control 10%) | Cumulative number of dying fish ([6]; 28 days, control 0) | Cumulative number of dying fish ([6]; 46 days, control 2) | Cumulative number of dying fish ([6]; 55 days, control 13) | Cumulative number of dying fish ([6]; 67 days, control 18) | Per cent of Inhibition (virus multiplication, HA units) [7] | Percent of inhibition of pock ([8]; 25 mg/kg) | Percent of inhibition of pock ([8]; 50 mg/kg) | Acute toxicity LD0 (mice)
CP(=O)(O)CC[C@H](N)C(=O)O [L-Methylphosphinoethyl glycine sodium salt] | 2.00 | > 7.3 | > 1000 µg/mL | 4000 µg/mL |  |  |  |  |  |  |  |  |  |  |  | 
NC(Cc1ccc(F)cc1)C(=O)O (stereo not shown) [p-fluoro-phenyl alanine] |  |  |  |  | exhibits an antiviral activity |  |  |  |  |  |  |  |  |  |  | 
N[C@@H](CNC(=O)NO)C(=O)O [L-Hydroxyureidomethyl glycine] | 0.50 |  | > 1000 µg/mL | 4000 µg/mL |  | 4.00 | 3.50 | 95% | 0 | 0 | 0 | 1 | 65% | 33.7% | 48.0% | > 3 g/kg
